Data as given in patent publication US20120114639A1, “COMPOSITIONS AND METHODS FOR INHIBITING VIRAL AND/OR BACTERIAL INFECTIONS” (priority 2010, published 2012).

What was measured:
HPV16 [1] = assay: HPV16 PsV infection of HaCaT cells, luciferase assay; assay type: cell-based, human papillomavirus; conditions: for block of HPV16 infection / reduction of infectivity: HaCaT in CM, 24 hours in presence of inhibitor, 1 μM AG1478, 100 nM PD168393, 100 μM genistein, 1 μM PD173074, 100-600 nM cetuximab, 100 vge/cell; for visible toxicity in dose-response analysis: HaCaT cells, dose-response of infection inhibition; for IC50: Human papillomavirus 16, HaCaT, read-out: IC50 of HPV16 infection inhibition; for restoration of HPV16 infectivity in SFM by added factor: serum-starved HaCaT, HPV16 bound in SFM, 24 hours in SFM plus factor, compared to CM
Protocol: FIG. 2. […] (A, B) Immunoblot for syndecan-1 (polyclonal syndecan-1 Ab) after 24 hours at 37° C. in CM (A) or post starvation in SFM and after six hours at 37° C. in Tyrode's Buffer (B); immunoblot for HPV16 L1 released into CM post virus binding for indicated times (C) or 24 hours (E). […] Cells were untreated (U) or pre-treated with BM or MM for one hour, then exposed to HPV16 PsV in the presence of inhibitors in CM. Infection was assayed by quantifying luciferase levels at 24 hours p.i. (F). Data are represented as mean±SEM of three experiments. (G-H) IC50 of HPV16 infectivity inhibition by MMIP inhibitors batimastat and mariniastat. HaCaT cells incubated with serial dilutions of batimastat or marimastat in CM, for one hour before incubation with 100 viral genome equivalents (vge)/cell HPV16, one hour at 4° C. After washing away unbound virus, cells were incubated for 24 hours at 37° C. in the presence of inhibitors. HPV16 infection was measured with luciferase assay. Data are represented as mean±SEM of 3 experiments.
(§1) FIG. 7. […] (A) Relative HPV16 infection of HaCaT cells in the presence of specific GFR and protein tyrosine kinase inhibitors. […] Cells were exposed to HPV16 PsV at 100 vge/cell for one hour at 4° C., then washed extensively and shifted to 37° C. in the presence of the indicated inhibitor in CM for 24 hours at which time they were analyzed for luciferase expression. Data are represented as mean±SEM of three experiments. (B-C) EGFR knockdown was accomplished using siRNA to EGFR and the percent of EGFR protein remaining in EGFR-siRNA transfected HaCaT cells was determined by immunoblot and compared by densitometry to EGFR levels in cells transfected with a negative control siRNA at 48 hours post transfection. Four separate transfections were analyzed (B) and HPV16 PsV infection levels were measured at 24 hours post infection (48 hours post transfection) in each (C). Error bars represent the average of triplicate luciferase readings from the four transfections. (D) Cells were pre-treated four hours with 100 μm monastrol, pre-treated with monastrol for four hours plus PD168393 for duration, or pre-treated with PD168393 for four hours plus monastrol for duration. […] HaCaT cells starved in SFM (four hours) were exposed to HPV16 in CM (positive control) or SFM. After washing away unbound virus, cells were incubated for 24 hours in CM, Ty (Tyrode's buffer containing 0.05% BSA), SFM, syndecan-1 depleted CM (IP-syd), or EGF-depleted CM (IP-EGF). Infection was quantified by luciferase assay 24 hours post shift to 37° C. Data are represented as mean SEM of three experiments. […] HaCaT cells starved in SFM were exposed to HPV16 in SFM for one hour at 4° C. After washing away unbound virus, cells were incubated for 24 hours in. SFM, SFM containing GF, or in CM. Infections were quantified by luciferase assay; bars represented the mean SEM of three individual experiments. (G). To investigate if infection inhibition by the various agents used in FIG. 7A,D,E could be attributed to cell cycle changes, we used identical conditions and timing of inhibitor treatment on HaCaT cells. We then stained with propidium iodide and examined the cell cycle using flow cytometry. The fractions of cells in G1 (1n), S (intermediate), and G2/M (2n) phases were expressed as percentages of the total.

HaCaT cells = assay: Cell cycle analysis by propidium iodide flow cytometry; assay type: cell-based, human; conditions: HaCaT cells in CM infected with HPV16, same inhibitor conditions as infection assays
Protocol: as §1, with “To investigate if infection inhibition by the various agents used in FIG. 7A,D,E could be attributed to cell cycle changes, we used identical conditions and timing of inhibitor treatment on HaCaT cells. We then stained with propidium iodide and examined the cell cycle using flow cytometry.” left out

[2] = tested on: p-EGFR, p-KGFR and downstream effector p-ERK1/2; assay: EGFR and KGFR signal activation, phospho-protein immunoblot in serum-starved HaCaT cells; assay type: cell-based, human; conditions: 10 minutes ligand exposure; 100 nM PD168393, 1 μM PD173074, 100 μM genistein, 100 μM daidzein, 600 nM cetuximab
Protocol: FIG. 6. […] (A-B) Immunoblot of p-EGFR, p-KGFR and downstream effector p-ERK1/2 following 10 minutes ligand exposure (listed at the left of each blot: EGF, KGF, HPV16 PsV; lane 2) in serum-starved HaCaT cells. Mock exposed cells were negative controls (lane 1); ligand controls included 10 ng/ml EGF and 10 ng/ml KGF exposure (10 minutes). […] Actin is detected as a loading control. (C-D) Immunoblot of nuclear cell fractions and confocal microscopy localization of p-ERK1/2 following EGF and HPV16 exposure in serum-starved HaCaT cells at indicated times post-exposure. (C) Immunoblot for p-ERK1/2 in nuclear fractions from exposed cells. (D) Immunofluorescent confocal microscopy for localization of p-ERK1/2 (red) in PsV exposed cells. DAPI was used as a nuclear marker and was pseudocolored green to facilitate efficient co-localization of p-ERK1/2 in the nucleus. Parameters of lasers intensities were kept constant during the imaging.
Subconfluent HaCaT cells were serum-starved for 3-4 hours in Tyrode's buffer containing 0.05% BSA. After adding ˜100 vge/cell HPV16 PsV, 10 ng/ml EGF or 10 ng/ml KFG, cells were incubated at 37° C. for 10 minutes before transferring to ice and solubilizing cells with RIPA buffer. In some experiments cells were incubated with various inhibitors in Tyrode's buffer for 45 minutes and after Tyrode's washes, were incubated with virus as above in the presence of inhibitors. Lysates were clarified, mixed with Laemmli buffer and boiled for five minutes prior to SDS-PAGE Tmmunoblot was performed with various monoclonal and polyclonal antibodies: p-EGFR, p-KGFR (p-FGFR2b), p-ERK, actin. Nuclear fractionation was performed for detection of p-ERK movement into the nucleus. HaCaT cells were starved 4 h in Tyrode's solution containing 0.05% BSA, then exposed to HPV or EGF for various times. Cells were solubilized with NP40 lysis buffer and centrifuged. The pellet was incubated with nuclear extraction buffer. Following incubation on ice for one hour, the extract was clarified and the supernatant subjected to SDS-PAGE and immunoblot for analysis of p-ERK content.

HPV16 [3] = assay: HPV16 release from HaCaT cells into media, L1 immunoblot; assay type: cell-based, human papillomavirus; conditions: CM, MMP inhibitor, FIG. 2E
Protocol: FIG. 2. HPV16 and syndecan-1 release from the HaCaT cell plasma membrane is MMP dependent. (A, B) Immunoblot for syndecan-1 (polyclonal syndecan-1 Ab) after 24 hours at 37° C. in CM (A) or post starvation in SFM and after six hours at 37° C. in Tyrode's Buffer (B); immunoblot for HPV16 L1 released into CM post virus binding for indicated times (C) or 24 hours (E). (D) Gelatin zymography showing protease activity present in HaCaT cell CM alone or with binding of HPV16. (E-F) Effect of MMP inhibitors batimistat (BM) or marimastat (MM) at the indicated concentrations on HPV16 release into media as in panel C and densitometric quantification with AlphaEaseFC software (E) and relative infection levels (F). Cells were untreated (U) or pre-treated with BM or MM for one hour, then exposed to HPV16 PsV in the presence of inhibitors in CM. Infection was assayed by quantifying luciferase levels at 24 hours p.i. (F). Data are represented as mean±SEM of three experiments. […] HPV16 infection was measured with luciferase assay. […]
HaCaT cells were incubated with 200 vge/cell of HPV PsVs for 1 h at 4° C., washed three ties with media and incubated at 37° C. for various times before harvesting the experimental media. […] The eluted fractions were analyzed by SDS-PAGE followed by immunoblotting for HPV16 L1, proteoglycans and growth factors. […]

## CCN(CC)CCCCNc1ncc2cc(-c3cc(OC)cc(OC)c3)c(NC(=O)NC(C)(C)C)nc2n1 [PD173074]
HPV16 [1]
  block of HPV16 infection / reduction of infectivity: 35%
HaCaT cells
  cell cycle distribution (G1, S, G2/M) versus no treatment: relatively similar

## O=c1c(-c2ccc(O)cc2)coc2cc(O)ccc12 [daidzein]
[2]
  rapid phosphorylation of the target GFR and downstream p-ERK1/2 induced by GFs or HPV16: no inhibitory effect

## CNC(=O)[C@H](Cc1ccccc1)NC(=O)[C@H](CC(C)C)[C@H](CSc1cccs1)C(=O)NO [batimastat]
HPV16 [1]
  visible toxicity in dose-response analysis: absence of visible toxicity
  IC50: 400 nM

## EGF: epidermal growth factor
HPV16 [1]
  restoration of HPV16 infectivity in SFM by added factor: fully restore infection levels

## O=c1c(-c2ccc(O)cc2)coc2cc(O)cc(O)c12 [genistein]
HPV16 [1]
  block of HPV16 infection / reduction of infectivity: almost completely blocked infection
[2]
  rapid phosphorylation of the target GFR and downstream p-ERK1/2 induced by GFs or HPV16: diminished

## C=CC(=O)Nc1ccc2ncnc(Nc3cccc(Br)c3)c2c1 [PD168393]
HPV16 [1]; HaCaT, 100 μM monastrol plus PD168393, FIG. 7D
  infection inhibition when PD168393 treatment was added with monastrol: ≈ 70%
[2]
  rapid phosphorylation of the target GFR and downstream p-ERK1/2 induced by GFs or HPV16: diminished
HaCaT cells
  cell cycle distribution (G1, S, G2/M) versus no treatment: relatively similar

## CNC(=O)[C@@H](NC(=O)[C@H](CC(C)C)[C@H](O)C(=O)NO)C(C)(C)C [marimastat]
HPV16 [1]; CM, luciferase 24 hours p.i.
  HPV16 infection of HaCaT cells (in words): efficiently reduced HPV16 infection
HPV16 [1]; HaCaT cells grown in CM and infected with HPV16
  infection inhibition under cell cycle assay conditions: ~90%
HPV16 [1]
  visible toxicity in dose-response analysis: absence of visible toxicity
  IC50: 1000 nM
HPV16 [3]
  release of HPV16 from cells: effectively prevented the release
HaCaT cells
  cell cycle distribution (G1, S, G2/M) versus no treatment: relatively similar

## COc1cc2ncnc(Nc3cccc(Cl)c3)c2cc1OC [AG1478]
[2]
  rapid phosphorylation of the target GFR and downstream p-ERK1/2 induced by GFs or HPV16: completely abrogating signaling

## albumin
HPV16 [1]
  restoration of HPV16 infectivity in SFM by added factor: did not enhance infectivity
